Test results: the supplement of paper PMC10307832

Legend:
Experiment in all cases: relative viability (nuclei count vs DMSO), 5 days (fraction); higher = more cells survive
[1] = compound: CCn1c(-c2nonc2N)nc2cnc(Oc3cccc(NC(=O)c4ccc(OCCN5CCOCC5)cc4)c3)cc21
How it was run: (§1)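 In 1536-well plates, lung cancer cell lines rested overnight at 37 °C before five library-drug doses (not always all listed), √10 apart, were pinned onto vehicle-anchored plates. Nuclei were counted with MetaXpress from 4× Hoechst images taken after 5 days without medium change. Viability compares treated-well with vehicle-well nuclei as a median over plates, and plates needed control CV below 25% plus at least one doubling to pass.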

[2] = compound: CCC1=CN=CN=C1N2CCN(CC2)CC3=NC4=C(N3)C=C(C=C4)C(F)(F)F
How it was run: as §1

Mirin = compound: N=C1NC(=O)/C(=C/c2ccc(O)cc2)S1 [Mirin]
How it was run: as §1

[3] = compound: CCC1=CN=CN=C1N2CCN(CC2)CC3=NC4=C(N3)C=C(C=C4)C(F)(F)F + COc1cc2c(Oc3ccc(NC(=O)C4(C(=O)Nc5ccc(F)cc5)CC4)cc3F)ccnc2cc1OCCCN1CCOCC1 [Foretinib] (partner 0.25 µM)
How it was run: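 One day after seeding in 1536-well plates, lung cancer cell lines were dosed by pin tool. Dosing was either single-drug or a fixed anchor-drug dose plus five library-drug doses (not always all listed) in √10 steps. After 5 days, nuclei were stained in one fix-and-stain step and counted on 4× images, and relative viability is the nuclei count of treated wells over that of vehicle wells, given as the median of duplicate plates.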

Row | Cell Line | relative viability ([1]; 0.04 µM) | relative viability ([1]; 0.1265 µM) | relative viability ([1]; 0.4 µM) | relative viability ([1]; 1.265 µM) | relative viability ([1]; 4 µM) | relative viability ([2]; 0.04 µM) | relative viability ([2]; 0.1265 µM) | relative viability ([2]; 0.4 µM) | relative viability ([2]; 1.265 µM) | relative viability ([2]; 4 µM) | relative viability (Mirin; 0.25 µM) | relative viability (Mirin; 0.7906 µM) | relative viability (Mirin; 2.5 µM) | relative viability (Mirin; 7.906 µM) | relative viability (Mirin; 25 µM) | relative viability ([3]; first compound 0.04 µM) | relative viability ([3]; first compound 0.1265 µM) | relative viability ([3]; first compound 0.4 µM) | relative viability ([3]; first compound 1.265 µM) | relative viability ([3]; first compound 4 µM)
1 | NCI-H2126 | 1.09 | 1.04 | 0.74 | 0.792 | 0.943 | 1 | 0.977 | 0.969 | 0.891 | 1.02 | 1.03 | 0.908 | 0.995 | 1 | 0.979 | 1.15 | 1.26 | 1.06 | 0.986 | 1.17
2 | NCI-H727 | 1.21 | 1.15 | 0.767 | 0.986 | 0.947 | 1.05 | 0.909 | 0.981 | 0.603 | 0.91 | 1.14 | 0.918 | 1.06 | 1.27 | 1.15 | 0.854 | 0.811 | 0.693 | 0.573 | 0.949
3 | EMC-BAC-2 | 0.94 | 0.862 | 0.43 | 0.405 | 0.343 | 0.77 | 0.877 | 0.925 | 0.802 | 1.15 | 0.993 | 0.907 | 1.01 | 0.857 | 0.971 | 1 | 0.943 | 1.03 | – | 0.914
4 | NCI-H1355 | 1.04 | 1 | 0.776 | 0.632 | 0.487 | 1.01 | 0.935 | 0.918 | 0.931 | 1.04 | 0.997 | 0.982 | 0.949 | 0.942 | 1.08 | 1 | 0.875 | 0.85 | 0.946 | 0.793
5 | NCI-H2347 | 1.1 | 1.02 | 0.878 | 0.504 | 0.546 | 1.05 | 0.986 | 1.04 | 0.827 | 1.09 | 0.962 | 0.972 | 1.08 | 0.957 | 1.03 | 0.8 | 0.714 | 0.798 | – | 0.896
6 | NCI-H1651 | 1.05 | 1.01 | 0.826 | 0.7 | 0.648 | 1.08 | 0.961 | 0.978 | 0.909 | 0.988 | 0.962 | 0.973 | 1.03 | 0.866 | 0.918 | 0.934 | 0.704 | 0.861 | 0.709 | 0.667
7 | NCI-H1975 | 0.824 | 0.636 | 0.49 | 0.427 | 0.304 | 1.04 | 0.951 | 0.931 | 0.844 | 0.942 | 1.07 | 1.03 | 0.94 | 1.01 | 0.979 | 1 | 0.945 | 0.986 | 0.829 | 0.803
8 | COR-L23 | 1.1 | 0.846 | 0.497 | 0.252 | 0.19 | 0.985 | 0.989 | 0.937 | 0.932 | 0.922 | 1.04 | 1.13 | 1.09 | 1.06 | 1.02 | 0.925 | 0.861 | 0.986 | 0.918 | 0.897
9 | LOU-NH91 | 1.08 | 0.854 | 0.664 | 0.454 | 0.523 | 0.894 | 0.954 | 0.963 | 0.839 | 1.01 | 0.914 | 0.738 | 0.981 | 0.912 | 1.21 | 0.863 | 0.984 | 0.909 | 0.966 | 0.92
10 | NCI-H460 | 1.06 | 0.945 | 0.852 | 0.337 | 0.36 | 0.998 | 0.956 | 0.971 | 0.926 | 0.972 | 1.04 | 0.954 | 1.02 | 0.992 | 1.02 | 1.05 | 1.03 | 0.999 | 1.06 | 0.964
11 | NCI-H650 | 1.1 | 0.761 | 0.391 | 0.359 | 0.417 | 0.776 | 0.958 | 0.994 | 0.918 | 0.958 | 1.03 | 0.737 | 0.929 | – | 1.13 | 1.16 | 1.09 | 1.05 | 0.934 | 1.03
12 | NCI-H1915 | 1.11 | 1.01 | 0.811 | 0.331 | 0.404 | 0.992 | 0.976 | 0.926 | 0.809 | 1.05 | 1 | – | 0.984 | 0.951 | 1.03 | 1.11 | 1.06 | 1.04 | 0.943 | 0.996
13 | NCI-H1299 | 1.03 | 0.931 | 0.84 | 0.767 | 0.681 | 1.04 | 1.01 | 0.986 | 1.01 | 1.01 | 0.999 | 1.09 | 1.03 | 1 | 1.16 | 1.1 | 1.02 | 1.12 | 1.11 | 1.08
14 | NCI-H1734 | 0.961 | 0.878 | 0.545 | 0.418 | 0.362 | 0.88 | 0.98 | 0.943 | 0.814 | 1.03 | 0.978 | 0.761 | 0.929 | 0.895 | 0.884 | 0.828 | 0.811 | 0.874 | 0.816 | 0.765
15 | NCI-H1993 | 0.985 | 0.878 | 0.603 | 0.793 | 0.82 | 0.968 | 0.921 | 0.809 | 0.916 | 0.945 | 0.914 | 0.75 | 1.08 | 0.941 | 0.879 | 0.844 | 0.73 | 0.668 | 0.682 | 0.668
16 | LK-2 | 1.23 | 1.19 | 0.774 | 0.686 | 0.843 | 0.989 | 1.01 | 0.832 | 0.718 | 0.912 | 0.881 | 0.686 | 1.03 | 0.647 | 0.534 | 1.29 | 1.41 | 1.09 | 1.12 | 0.743
